For assay [1], the system named is HepG2. The assay is described as follows: Antiproliferative activity against human HepG2 cells after 48 hrs by CCK8 assay. The format is functional, cell-based. Conditions: HepG2, 48 h.
For assay [2], the system named is KB. Description: Antiproliferative activity against human KB cells after 48 hrs by CCK8 assay. The format is functional, cell-based.
A short description of assay [3]: Antiproliferative activity against human HCT8 cells after 48 hrs by CCK8 assay. Conditions: HCT-8, 48 h. The format is functional, cell-based.
Assay [4] is described as follows: Antiproliferative activity against human SGC7901 cells after 48 hrs by CCK8 assay. The format is functional, cell-based. The conditions noted are these: SGC-7901, 48 h.
The subject of assay [5] is SGC-7901. The assay is described as follows: Ratio of 10-hydroxycamptothecin IC50 to compound IC50 for human SGC7901 cells after 48 hrs by CCK8 assay. The format is functional.
Assay [6] addresses T1, DNA topoisomerase 1 (Homo sapiens) (UniProt P11387).
T1 sequence (whole entry): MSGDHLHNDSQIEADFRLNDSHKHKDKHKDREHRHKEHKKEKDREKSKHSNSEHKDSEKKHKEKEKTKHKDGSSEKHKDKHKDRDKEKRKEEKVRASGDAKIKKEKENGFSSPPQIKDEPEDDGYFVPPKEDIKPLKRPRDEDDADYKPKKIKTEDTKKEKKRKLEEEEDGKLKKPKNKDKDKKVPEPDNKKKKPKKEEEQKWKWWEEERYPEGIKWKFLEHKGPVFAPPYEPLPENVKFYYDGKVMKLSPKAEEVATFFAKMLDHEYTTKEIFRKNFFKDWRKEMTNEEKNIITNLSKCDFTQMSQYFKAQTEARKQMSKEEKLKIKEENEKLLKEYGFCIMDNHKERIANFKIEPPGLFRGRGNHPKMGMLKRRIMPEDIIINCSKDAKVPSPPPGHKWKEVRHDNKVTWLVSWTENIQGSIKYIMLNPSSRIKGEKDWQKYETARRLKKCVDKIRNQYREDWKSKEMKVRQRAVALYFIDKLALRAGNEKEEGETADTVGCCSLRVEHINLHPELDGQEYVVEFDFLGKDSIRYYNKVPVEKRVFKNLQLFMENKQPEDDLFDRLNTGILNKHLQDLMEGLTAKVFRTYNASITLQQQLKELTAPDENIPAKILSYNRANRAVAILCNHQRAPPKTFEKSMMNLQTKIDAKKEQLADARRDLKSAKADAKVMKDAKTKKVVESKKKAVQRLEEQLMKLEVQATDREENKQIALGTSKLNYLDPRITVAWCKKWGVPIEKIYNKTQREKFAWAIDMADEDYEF
Description: Inhibition of purified Topo 1 (unknown origin)-mediated supercoiled pBR322 DNA cleavage at 12.5 uM after 15 mins by agarose gel electrophoresis.

Structures can show the parent of a compound that is named as a salt. Active and inactive are the calls of the source. The rule behind the calls is not given here.

Turning to `CC[C@@]1(O)C(=O)OCc2c1cc1n(c2=O)Cc2cc3c(CSC(C)(C)C)c(O)ccc3nc2-1`, the concentration for half-maximal inhibition (IC50) in assay [1] is 762 nM; in assay [2], 1410 nM; in assay [3], 1430 nM; in assay [4] it was 3140 nM.
As to `CC[C@@]1(O)C(=O)OCc2c1cc1n(c2=O)Cc2cc3c4c(ccc3nc2-1)O[C@@H]1OCC[C@H]1C4`, the concentration for half-maximal inhibition (IC50) is 332 nM in assay [1], 1710 nM in assay [2], 203 nM in assay [3] and 182 nM in assay [4]. For the same molecule, in assay [5], the “Ratio IC50” value is given as 4. Moreover, the inhibition entry in assay [6] is “inactive”.
Regarding `CCN(CC)CCSCc1c(O)ccc2nc3c(cc12)Cn1c-3cc2c(c1=O)COC(=O)[C@]2(O)CC`, the IC50 in assay [1] is 5090 nM; in assay [2] it was 32500 nM; in assay [3], 21900 nM; in assay [4], 10400 nM.
Consider `CCOC1CCc2c(ccc3nc4c(cc23)Cn2c-4cc3c(c2=O)COC(=O)[C@]3(O)CC)O1` (some centres not stated), for which the IC50 was 265 nM in assay [1], 1480 nM in assay [2], 401 nM in assay [3] and 413 nM in assay [4].
In the same order, the values of `CC[C@@]1(O)C(=O)OCc2c1cc1n(c2=O)Cc2cc3c(CSCC(=O)OC)c(O)ccc3nc2-1` are 3200 nM, 12900 nM, 3090 nM and 9020 nM.
For the molecule `CCCSCc1c(O)ccc2nc3c(cc12)Cn1c-3cc2c(c1=O)COC(=O)[C@]2(O)CC`, the 50% inhibitory concentration (IC50) in assay [1] came out at 734 nM; in assay [2], 2170 nM; in assay [3], 746 nM; in assay [4], 2820 nM.
Regarding `CC[C@@]1(O)C(=O)OCc2c1cc1n(c2=O)Cc2cc3c4c(ccc3nc2-1)O[C@@H]1OCCC[C@H]1C4`, the IC50 in assay [1] was 266 nM; in assay [2], 1230 nM; in assay [3] it was 204 nM; in assay [4], 255 nM. The “Ratio IC50” value in assay [5] turned out to be 4.
With `CC[C@@]1(O)C(=O)OCc2c1cc1n(c2=O)Cc2cc3c4c(ccc3nc2-1)OC(O)CC4` (some centres not stated), the half-inhibitory concentration (IC50) stood at 184 nM in assay [1], 777 nM in assay [2], 567 nM in assay [3] and 536 nM in assay [4]. Moreover, the inhibition entry in assay [6] was “Active”.
Consider `CC[C@@]1(O)C(=O)OCc2c1cc1n(c2=O)Cc2cc3c(CSC)c(O)ccc3nc2-1`, for which the IC50 in assay [1] came to 70400 nM; in assay [2] it was 19300 nM; in assay [3], 1220 nM; in assay [4], 2170 nM.
The matching figures for `CC[C@@]1(O)C(=O)OCc2c1cc1n(c2=O)Cc2cc3c(CN(C)C)c(O)ccc3nc2-1` [TOPOTECAN HYDROCHLORIDE]: 4210 nM, 2280 nM, 1880 nM and 2290 nM.
For the molecule `CC[C@@]1(O)C(=O)OCc2c1cc1n(c2=O)Cc2cc3c(CSCCC(=O)O)c(O)ccc3nc2-1`, the IC50 is 89000 nM in assay [1], > 100000 nM in assay [2], 30300 nM in assay [3] and 40800 nM in assay [4]. For the same molecule, the inhibition entry in assay [6] was “inactive”.
The matching figures for `CC[C@@]1(O)C(=O)OCc2c1cc1n(c2=O)Cc2cc3c(CSC(C)C)c(O)ccc3nc2-1`: 351 nM, 994 nM, 406 nM, 993 nM and “Active”.
The matching figures for `CC[C@@]1(O)C(=O)OCc2c1cc1n(c2=O)Cc2cc3cc(O)ccc3nc2-1` [HYDROXYCAMPTOTHECIN]: 499 nM, 128 nM, 181 nM, 835 nM and “Active”.
Regarding `CCCCOC1CCc2c(ccc3nc4c(cc23)Cn2c-4cc3c(c2=O)COC(=O)[C@]3(O)CC)O1` (some centres not stated), the IC50 in assay [1] was 145 nM; in assay [2], 950 nM; in assay [3], 317 nM; in assay [4] it was 772 nM. Further, the inhibition entry in assay [6] is “inactive”.
With `CCSCc1c(O)ccc2nc3c(cc12)Cn1c-3cc2c(c1=O)COC(=O)[C@]2(O)CC`, the IC50 in assay [1] stood at 595 nM; in assay [2], 2190 nM; in assay [3] it was 282 nM; in assay [4], 549 nM.
As to `CC[C@@]1(O)C(=O)OCc2c1cc1n(c2=O)Cc2cc3c4c(ccc3nc2-1)OC(OCC(C)C)CC4` (some centres not stated), the IC50 is 387 nM in assay [1], 1140 nM in assay [2], 471 nM in assay [3] and 344 nM in assay [4].
